Measured values: ChEMBL document CHEMBL1141220, “A new class of HIV-1 protease inhibitors containing a tertiary alcohol in the transition-state mimicking scaffold” (J Med Chem, 2005)

How the values were obtained:
[1] = target: Human immunodeficiency virus type 1 protease (Human immunodeficiency virus 1, UniProt Q72874); assay: Inhibitory activity against HIV1 protease expressed in Escherichia coli in a fluorometric assay
[2] = test system: MT4; assay: Antiviral activity against HIV1 infected MT4 cells by colorimetric XTT assay; assay type: functional, cell-based; conditions: Homo sapiens
[3] = test system: MT4; assay: Antiviral activity against mutant HIV1 (V32I, M46I, V82A) infected MT4 cells by colorimetric XTT assay; assay type: functional, cell-based
[4] = test system: MT4; assay: Antiviral activity against mutant HIV1 (V32I, M46I, A71V, V82A) infected MT4 cells by colorimetric XTT assay; assay type: functional, cell-based
[5] = Caco-2 cell membrane permeability; assay type: ADME, cell-based; conditions: human
[6] = Intrinsic clearance (CL) in human liver microsomes at 2 uM; assay type: ADME, Microsome

Row | SMILES | Ki [1] | EC50 [2] | EC50 [3] | EC50 [4] | Papp [5] | microsomal CLint at 2 µM [6]
1 | CC(C)(C)[C@H](NC(=O)OCc1ccccc1)C(=O)NN(Cc1ccccc1)C[C@@](O)(Cc1ccccc1)C(=O)N[C@H]1c2ccccc2C[C@H]1O | 18 nM | > 10000 nM |  |  |  | 
2 | COC(=O)N[C@H](C(=O)NN(Cc1ccccc1)C[C@@](O)(Cc1ccccc1)C(=O)N[C@H]1c2ccccc2C[C@H]1O)C(C)(C)C | 6 nM | 1900 nM | 2000 nM | 1600 nM | 35 ×10⁻⁶ cm/s | 527 µL/min/mg
3 | COC(=O)N[C@H](C(=O)NN(Cc1ccccc1)C[C@@](O)(Cc1ccccc1)C(=O)N[C@H]1c2ccccc2C[C@H]1O)C(C)C | 9 nM | 4800 nM |  |  |  | 
4 | COC(=O)N[C@H](C(=O)NN(Cc1ccccc1)C[C@](O)(Cc1ccccc1)C(=O)N[C@H]1c2ccccc2C[C@H]1O)C(C)(C)C |  | > 10000 nM |  |  |  | 
5 | CC(C)[C@H](NC(=O)OCc1ccccc1)C(=O)NN(Cc1ccc(Br)cc1)C[C@@](O)(Cc1ccccc1)C(=O)N[C@H]1c2ccccc2C[C@H]1O | 17 nM | > 10000 nM |  |  |  | 
6 | CC(C)(C)[C@H](NS(C)(=O)=O)C(=O)NN(Cc1ccccc1)C[C@@](O)(Cc1ccccc1)C(=O)N[C@H]1c2ccccc2C[C@H]1O | 63 nM | > 10000 nM |  |  |  | 
7 | COC(=O)N[C@H](C(=O)NN(Cc1ccc(Br)cc1)C[C@@](O)(Cc1ccccc1)C(=O)N[C@H]1c2ccccc2C[C@H]1O)C(C)(C)C |  | 1100 nM | 900 nM | 800 nM | 42 ×10⁻⁶ cm/s | 
8 | CC(C)[C@H](NC(=O)OCc1ccccc1)C(=O)NN(Cc1ccccc1)C[C@@](O)(Cc1ccccc1)C(=O)N[C@H]1c2ccccc2C[C@H]1O | 23 nM | > 10000 nM |  |  |  | 
9 | CC(C)[C@H](NC(=O)OCc1ccccc1)C(=O)NN(Cc1ccccc1)C[C@](O)(Cc1ccccc1)C(=O)N[C@H]1c2ccccc2C[C@H]1O | 870 nM | > 10000 nM |  |  |  | 
10 | CC(C)(C)[C@H](NC(=O)NCc1ccccc1)C(=O)NN(Cc1ccccc1)C[C@@](O)(Cc1ccccc1)C(=O)N[C@H]1c2ccccc2C[C@H]1O | 22 nM | > 10000 nM |  |  |  | 
